# Data published in patent US20160083391A1, “TRICYCLIC PIPERAZINE DERIVATIVE” (Sunovion Pharmaceuticals Inc., priority 2014, published 2016).
# Tested on: PDE1
# Test: In vitro HTRF PDE1 inhibition assay
# Format: biochemical
# Conditions: HTRF cGMP assay, 100 nM cyclic GMP, PDE (1A3, 1B or 1C) with calmodulin, 45 minutes at 37° C.; isoform of the tabulated values not stated
# Summary of the method: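 Activities are given as IC50 bands (<1, 1-10, >10 μM) derived from a 665/615 nm time-resolved FRET readout after d2-cGMP/anti-cGMP cryptate detection. Enzymes PDE1A3, 1B or 1C plus calmodulin were incubated 45 min at 37 °C with 100 nM cGMP, 1% DMSO, CaCl2/MgCl2 Tris buffer pH 7.4.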
row,IC50 [µM],SMILES
1,< 1,"CC(C)n1ncc2c(=O)n3c(nc21)CN(c1ccc(C(F)(F)F)cc1)CC3 [Compound I-239, 1-Isopropyl-8-(4-(trifluoromethyl)phenyl)-6,7,8,9-tetrahydropyrazino[1,2-a]pyrazolo[3,4-d]pyrimidin-4(1H)-one]"
2,< 1,"COc1ccc(CN2CCn3c(nc4c(cnn4C(C)C)c3=O)C2)cc1F [Compound I-140, 8-(3-Fluoro-4-methoxybenzyl)-1-isopropyl-6,7,8,9-tetrahydropyrazino[1,2-a]pyrazolo[3,4-d]pyrimidin-4(1H)-one]"
3,< 1,"O=c1c2cnn(C3CCCC3)c2nc2n1CCN(Cc1ccc(Cl)cc1)C2 [Compound I-75, 8-(4-Chlorobenzyl)-1-cyclopentyl-6,7,8,9-tetrahydropyrazino[1,2-a]pyrazolo[3,4-d]pyrimidin-4(1H)-one]"
4,1 to 10,"COc1ccccc1N1CCn2c(nc3c(cnn3C(C)C)c2=O)C1 [Compound I-94, 1-Isopropyl-8-(2-methoxyphenyl)-6,7,8,9-tetrahydropyrazino[1,2-a]pyrazolo[3,4-d]pyrimidin-4(1H)-one]"
5,1 to 10,"CC(C)n1ncc2c(=O)n3c(nc21)CN(Cc1ccccc1-c1ccccc1)CC3 [Compound I-64, 8-([1,1′-Biphenyl]-2-ylmethyl)-1-isopropyl-6,7,8,9-tetrahydropyrazino[1,2-a]pyrazolo[3,4-d]pyrimidin-4(1H)-one]"
6,> 10,"O=c1c2cn[nH]c2nc2n1CCNC2Cc1ccccc1 (racemic) [Compound I-6, (±)-9-Benzyl-6,7,8,9-tetrahydropyrazino[1,2-a]pyrazolo[3,4-d]pyrimidin-4(1H)-one]"
7,> 10,"CC(C)c1n[nH]c2c(=O)n3c(nc12)C(C)N(C)CC3 (racemic) [Compound I-38, (±)-3-Isopropyl-5,6-dimethyl-5,6,7,8-tetrahydropyrazino[1,2-a]pyrazolo[4,3-d]pyrimidin-10(1H)-one]"
8,1 to 10,"O=C(c1ccc(Cl)cc1)N1CCn2c(nc3c(cnn3C3CCCC3)c2=O)C1 [Compound I-115, 8-(4-Chlorobenzoyl)-1-cyclopentyl-6,7,8,9-tetrahydropyrazino[1,2-a]pyrazolo[3,4-d]pyrimidin-4(1H)-one]"
9,> 10,"CN1CCn2c(nc3[nH]nc(Nc4ccccc4)c3c2=O)C1 [Compound I-49, 8-Methyl-3-(phenylamino)-6,7,8,9-tetrahydropyrazino[1,2-a]pyrazolo[3,4-d]pyrimidin-4(1H)-one]"
10,1 to 10,"O=c1c2cnc(C3CCCC3)n2nc2n1CCN(c1ccncc1)C2 [Compound I-185, 3-Cyclopentyl-7-(pyridin-4-yl)-8,9-dihydro-6H-imidazo[5,1-f]pyrazino[2,1-c][1,2,4]triazin-11(7H)-one]"
11,< 1,"CC(C)c1ncc2c(=O)n3c(nn12)CN(Cc1ccc(Cl)cc1)CC3 [Compound I-179, 7-(4-Chlorobenzyl)-3-isopropyl-8,9-dihydro-6H-imidazo[5,1-f]pyrazino[2,1-c][1,2,4]triazin-11(7H)-one]"
12,> 10,"CC(C)c1n[nH]c2c(=O)n3c(nc12)C(Cc1ccccc1)N(C)CC3 (racemic) [Compound I-39, (±)-5-Benzyl-3-isopropyl-6-methyl-5,6,7,8-tetrahydropyrazino[1,2-a]pyrazolo[4,3-d]pyrimidin-10(1H)-one]"
13,> 10,"CC1CNCc2nc3c(cnn3C3CCCC3)c(=O)n21 (racemic) [Compound I-99, (±)-1-cyclopentyl-6-methyl-6,7,8,9-tetrahydropyrazino[1,2-a]pyrazolo[3,4-d]pyrimidin-4(1H)-one]"
14,> 10,"CC(C)n1ncc2c(=O)n3c(nc21)CNCC3 [Compound I-1, 1-Isopropyl-6,7,8,9-tetrahydropyrazino[1,2-a]pyrazolo[3,4-d]pyrimidin-4(1H)-one]"
15,> 10,"COc1ccc(CN2CCn3c(nc4c(cnn4C4CCOC4)c3=O)C2)cc1 (racemic) [Compound I-219, (±)-8-(4-methoxybenzyl)-1-(tetrahydrofuran-3-yl)-6,7,8,9-tetrahydropyrazino[1,2-a]pyrazolo[3,4-d]pyrimidin-4(1H)-one]"
16,> 10,"CC(C)n1ncc2c(=O)n3c(nc21)C(Cc1ccccc1)N(C)CC3 (racemic) [Compound I-25, (±)-9-Benzyl-1-isopropyl-8-methyl-6,7,8,9-tetrahydropyrazino[1,2-a]pyrazolo[3,4-d]pyrimidin-4(1H)-one]"
17,1 to 10,"COc1ccccc1CN1CCn2c(nc3c(cnn3CC(C)C)c2=O)C1 [Compound I-77, 1-Isobutyl-8-(2-methoxybenzyl)-6,7,8,9-tetrahydropyrazino[1,2-a]pyrazolo[3,4-d]pyrimidin-4(1H)-one]"
18,1 to 10,"CC(C)n1ncc2c(=O)n3c(nc21)CN(c1cccnc1)CC3 [Compound I-143, 1-Isopropyl-8-(pyridin-3-yl)-6,7,8,9-tetrahydropyrazino[1,2-a]pyrazolo[3,4-d]pyrimidin-4(1H)-one]"

row,IC50 [µM],SMILES
1,1 to 10,"O=c1c2cnn(C3CCCC3)c2nc2n1CCN(Cc1cnccn1)C2 [Compound I-203, 1-Cyclopentyl-8-(pyrazin-2-ylmethyl)-6,7,8,9-tetrahydropyrazino[1,2-a]pyrazolo[3,4-d]pyrimidin-4(1H)-one]"
2,1 to 10,"CC(C)n1ncc2c(=O)n3c(nc21)CN(Cc1ccccc1)CC3 [Compound I-29, 8-Benzyl-1-isopropyl-6,7,8,9-tetrahydropyrazino[1,2-a]pyrazolo[3,4-d]pyrimidin-4(1H)-one]"
3,< 1,"COc1ccc(CN2CCn3c(nn4c(C5CCOCC5)ncc4c3=O)C2)cc1 [Compound I-234, 7-(4-Methoxybenzyl)-3-(tetrahydro-2H-pyran-4-yl)-8,9-dihydro-6H-imidazo[5,1-f]pyrazino[2,1-c][1,2,4]triazin-11(7H)-one]"
4,< 1,"O=c1c2cnc(C3CCC3)n2nc2n1CCN(c1ccc(Cl)cc1)C2 [Compound I-249, 7-(4-Chlorophenyl)-3-cyclobutyl-8,9-dihydro-6H-imidazo[5,1-f]pyrazino[2,1-c][1,2,4]triazin-11(7H)-one]"
5,< 1,"CC(C)n1ncc2c(=O)n3c(nc21)CN(Cc1ccc(Cl)c(Cl)c1)CC3 [Compound I-169, 8-(3,4-Dichlorobenzyl)-1-isopropyl-6,7,8,9-tetrahydropyrazino[1,2-a]pyrazolo[3,4-d]pyrimidin-4(1H)-one]"
6,< 1,"COc1cc(N2Cc3nc4c(cnn4C(C)C)c(=O)n3CC2C)ccc1F (racemic) [Compound I-152, (±)-8-(4-Fluoro-3-methoxyphenyl)-1-isopropyl-7-methyl-6,7,8,9-tetrahydropyrazino[1,2-a]pyrazolo[3,4-d]pyrimidin-4(1H)-one]"
7,< 1,"COc1cccc(N2CCn3c(nc4c(cnn4C(C)C)c3=O)C2)c1 [Compound I-97, 1-Isopropyl-8-(3-methoxyphenyl)-6,7,8,9-tetrahydropyrazino[1,2-a]pyrazolo[3,4-d]pyrimidin-4(1H)-one]"
8,1 to 10,"CC(C)(C)c1ncc2c(=O)n3c(nn12)CN(c1ccc(Cl)cc1)CC3 [Compound I-250, 3-(tert-Butyl)-7-(4-chlorophenyl)-8,9-dihydro-6H-imidazo[5,1-f]pyrazino[2,1-c][1,2,4]triazin-11(7H)-one]"
9,> 10,"CN1CCn2c(nc3c(cnn3-c3ccccc3)c2=O)C1Cc1ccccc1 (racemic) [Compound I-26, (±)-9-Benzyl-8-methyl-1-phenyl-6,7,8,9-tetrahydropyrazino[1,2-a]pyrazolo[3,4-d]pyrimidin-4(1H)-one]"
10,< 1,"CC(C)n1ncc2c(=O)n3c(nc21)CN(Cc1ccccc1Cl)CC3 [Compound I-67, 8-(2-Chlorobenzyl)-1-isopropyl-6,7,8,9-tetrahydropyrazino[1,2-a]pyrazolo[3,4-d]pyrimidin-4(1H)-one]"
11,> 10,"CC(C)c1ncc2c(=O)n3c(nn12)CN(Cc1cncnc1)CC3 [Compound I-192, 3-Isopropyl-7-(pyrimidin-5-ylmethyl)-8,9-dihydro-6H-imidazo[5,1-f]pyrazino[2,1-c][1,2,4]triazin-11(7H)-one]"
12,> 10,"COCCn1ncc2c(=O)n3c(nc21)CN(Cc1ccc2c(c1)OCO2)CC3 [Compound I-163, 8-(Benzo[d][1.3]dioxol-5-ylmethyl)-1-(2-methoxyethyl)-6,7,8,9-tetrahydropyrazino[1,2-a]pyrazolo[3,4-d]pyrimidin-4(1H)-one]"
13,< 1,"CCOc1cc(N2CCn3c(nn4c(C5CCCC5)ncc4c3=O)C2)ccc1F [Compound I-184, 3-Cyclopentyl-7-(3-ethoxy-4-fluorophenyl)-8,9-dihydro-6H-imidazo[5,1-f]pyrazino[2,1-c][1,2,4]triazin-11(7H)-one]"
14,1 to 10,"CC(C)n1ncc2c(=O)n3c(nc21)CN(Cc1ccc2c(c1)OCO2)CC3 [Compound I-170, 8-(Benzo[d][1,3]dioxol-5-ylmethyl)-1-isopropyl-6,7,8,9-tetrahydropyrazino[1,2-a]pyrazolo[3,4-d]pyrimidin-4(1H)-one]"
15,1 to 10,"O=c1c2cnn(C3CCCC3)c2nc2n1CCN(Cc1cncnc1)C2 [Compound I-191, 1-Cyclopentyl-8-(pyrimidin-5-ylmethyl)-6,7,8,9-tetrahydropyrazino[1,2-a]pyrazolo[3,4-d]pyrimidin-4(1H)-one]"
16,> 10,"CC1Cn2c(nc3c(cnn3C(C)C)c2=O)CN1 (racemic) [Compound I-103, (±)-1-Isopropyl-7-methyl-6,7,8,9-tetrahydropyrazino[1,2-a]pyrazolo[3,4-d]pyrimidin-4(1H)-one]"
17,< 1,"COc1ccc(CN2CCn3c(nc4c(cnn4C(C)C)c3=O)C2)cc1 [Compound I-82, 1-Isopropyl-8-(4-methoxybenzyl)-6,7,8,9-tetrahydropyrazino[1,2-a]pyrazolo[3,4-d]pyrimidin-4(1H)-one]"
18,> 10,"Cc1nn(C2CCCC2)c2nc3n(c(=O)c12)CCN(Cc1ccc(Cl)cc1)C3 [Compound I-111, 8-(4-Chlorobenzyl)-1-cyclopentyl-3-methyl-6,7,8,9-tetrahydropyrazino[1,2-d]pyrazolo[3,4-d]pyrimidin-4(1H)-one]"
